Consider `COCC(CO)Nc1nc(SCc2cccc(F)c2F)nc2[nH]c(=O)sc12.[Na]` (racemic), for which the melting point (usually the temperature of the solid-liquid transition) is more than 250 °C. Then `CC(COCCO)Nc1nc(SCc2cccc(F)c2F)nc2[nH]c(=O)sc12` (racemic) [Example 11, (+/−)-5-[[(2,3-difluorophenyl)methyl]thio]-7-[[2-(2-hydroxyethoxy)-1-methylethyl]amino]thiazolo[4,5-d]pyrimidin-2(3H)-one], with 221 to 222 °C; and `CC(C)(CO)Nc1nc(SCc2ccccc2)nc2[nH]c(=O)sc12` [Example 1, 7-[(2-Hydroxy-1,1-dimethylethyl)amino]-5-[(phenylmethyl)thio]thiazolo[4,5-d]pyrimidin-2(3H)-one], with 207 to 208 °C. Compound `O=c1[nH]c2nc(SCc3cccc(F)c3F)nc(NC(CO)CO)c2s1` [Example 7, 5-[[(2,3-difluorophenyl)methyl]thio]-7-[[2-hydroxy-1-(hydroxymethyl)ethyl]amino]thiazolo[4,5-d]pyrimidin-2(3H)-one] had a melting point of 178 to 179 °C. In the case of `NCCNc1nc(SCc2cccc(F)c2F)nc2[nH]c(=O)sc12` [Example 8, 7-[(2-aminoethyl)amino]-5-[[(2,3-difluorophenyl)methyl]thio]thiazolo[4,5-d]pyrimidin-2(3H)-one], the melting point is 215 to 216 °C.

For `O=c1[nH]c2nc(SCc3cccc(F)c3F)nc(NCCO)c2s1` [Example 9, 5-[[(2,3-difluorophenyl)methyl]thio]-7-[(2-hydroxyethyl)amino]thiazolo[4,5-d]pyrimidin-2(3H)-one], the melting point fell in the range of 217 to 219 °C.

With `CS(=O)(=O)NCCNc1nc(SCc2cccc(F)c2F)nc2[nH]c(=O)sc12` [Example 10, N-[2-[[5-[[(2,3-difluorophenyl)methyl]thio]-2,3-dihydro-2-oxothiazolo[4,5-d]pyrimidin-7-yl]amino]ethyl]methanesulfonamide], the melting point lay in the range of 225 to 226 °C. Then `O=c1[nH]c2nc(SCc3cccc(F)c3F)nc(N[C@@H]3CNC[C@H]3O)c2s1` [Example 18, 5-[[(2,3-Difluorophenyl)methyl]thio]-7-[[(3R,4R)-4-hydroxypyrrolidin-3-yl]amino]-thiazolo[4,5-d]pyrimidin-2(3H)-one], with 270 °C (dec.); and `Cc1nc(CSc2nc(NC(CO)CO)c3sc(=O)[nH]c3n2)cs1` [Example 21, 7-[[2-Hydroxy-1-(hydroxymethyl)ethyl]amino]-5-[[(2-methyl-4-thiazolyl)methyl]thio]thiazolo[4,5-d]pyrimidin-2(3H)-one], with 239 to 243 °C. Then `Cc1nc(CSc2nc(NC(C)(C)CO)c3sc(=O)[nH]c3n2)cs1` [Example 22, 7-[(2-Hydroxy-1,1-dimethylethyl)amino]-5-[[(2-methyl-4-thiazolyl)methyl]thio]thiazolo[4,5-d]pyrimidin-2(3H)-one], with 231 to 232 °C; and `C[C@H](CN)Nc1nc(SCc2cccc(Cl)c2F)nc2[nH]c(=O)sc12` [Example 25, 7-[[(1R)-2-Amino-1-methylethyl]amino]-5-[[(3-chloro-2-fluorophenyl)methyl]thio]thiazolo[4,5-d]pyrimidin-2(3H)-one], with 241 to 243 °C. Then `NC(=O)[C@H](CO)Nc1nc(SCc2cccc(F)c2F)nc2[nH]c(=O)sc12` [Example 26, (2S)-2-[[5-[[(2,3-Difluorophenyl)methyl]thio]-2,3-dihydro-2-oxothiazolo[4,5-d]pyrimidin-7-yl]amino]-3-hydroxy-propanamide], with 145 to 151 °C.

The values above are taken from patent publication US8143261B2, “Thiazolo (4,5-D) pyrimidine compounds” (AstraZeneca AB, priority 1999, dated 2012).
